Measured values from patent US5760017A, “Cyclodextrin derivatives usable in particular for solubilizing hydrophobic chemical compounds such as medicaments and their preparation process” (priority 1993, dated 1998).
≈ marks a conversion by molar mass, not a printed value. Where two headings read alike, the source gives them in different places.

Assays:
[1] = Ionization potential measurements (pK) by potentiometry; format: physicochemical
[2] = Solubility in water under physiological conditions; settings: sodium phosphate buffer, pH 7.4, aqueous buffer
[3] = Solubilization of prednisolone in water by the cyclodextrin derivative; format: physicochemical
Protocol: 10 μmole of heptakis-6-ethanolamino-6-deoxycyclomaltoheptaose (in hydrochloride form) prepared in example 1, are dissolved in 1 ml of pure water (apyrogenic water for injection) and addition takes place of 5 μmole of prednisolone in the form of a 50 mmole/l concentrated solution in acetone. The acetone is eliminated by nitrogen passage for 10 minutes and the solution is lyophilized.
The residual solid, which contains 10 μmole of the cyclodextrin derivative and 5 μmole of prednisolone, is redissolved in the minimum of water at 25° C.

human erythrocytes = test: Hemolytic properties on human erythrocytes; format: cell-based; settings: 5 mmole/l hydrochloride solution (4 ml) with 0.4 ml human erythrocytes, pH 7.4, 30 minutes, 37° C.
Protocol: Thus, the hemolytic properties of the derivative obtained in example 1 were tested by contacting 0.4 ml of a solution of human erythrocytes and 4 ml of the 5 mmole/l hydrochloride solution, at a pH of 7.4, for 30 minutes and 37° C.

[4] = potentiometry, single pK, read-out: pK (single)
[5] = Solubility in water under physiological conditions, free base form, pH 7.40, 25° C.
[6] = Solubility in water under physiological conditions, hydrochloride form, pH 7.40, 25° C.

Structure (SMILES)	pKa [1, 4]	solubility [2, 5] [mM]	solubility [2, 6] [mM]	maximum prednisolone solubility reached in water in the presence of the cyclodextrin (derivative) [3] [mM]	pKa ([1]; first of two pK's, read-out: pK (first of two))	pKa ([1]; second of two pK's, read-out: pK (second of two))	solubility [2] [mM]	maximum prednisolone solubility reached in water in the presence of the cyclodextrin (derivative) ([3]; 25° C., 10 μmole cyclodextrin derivative and 5 μmole prednisolone, lyophilized, redissolved in minimum of water (cyclodextrin derivative at 60 mmole/l for the per-substituted derivative)) [mM]	hemolysis (in words) (human erythrocytes)
OCCNC[C@H]1O[C@@H]2O[C@H]3[C@H](O)[C@@H](O)[C@@H](O[C@H]4[C@H](O)[C@@H](O)[C@@H](O[C@H]5[C@H](O)[C@@H](O)[C@@H](O[C@H]6[C@H](O)[C@@H](O)[C@@H](O[C@H]7[C@H](O)[C@@H](O)[C@@H](O[C@H]8[C@H](O)[C@@H](O)[C@@H](O[C@H]1[C@H](O)[C@H]2O)O[C@@H]8CNCCO)O[C@@H]7CNCCO)O[C@@H]6CNCCO)O[C@@H]5CNCCO)O[C@@H]4CNCCO)O[C@@H]3CNCCO [Example 2, heptakis-6-ethanolamino-6-deoxycyclomaltoheptaose]	7.05	140 (≈ 201 mg/mL)	350 (≈ 503 mg/mL)	30					
NCCNC[C@H]1O[C@@H]2O[C@H]3[C@H](O)[C@@H](O)[C@@H](O[C@H]4[C@H](O)[C@@H](O)[C@@H](O[C@H]5[C@H](O)[C@@H](O)[C@@H](O[C@H]6[C@H](O)[C@@H](O)[C@@H](O[C@H]7[C@H](O)[C@@H](O)[C@@H](O[C@H]8[C@H](O)[C@@H](O)[C@@H](O[C@H]1[C@H](O)[C@H]2O)O[C@@H]8CO)O[C@@H]7CO)O[C@@H]6CO)O[C@@H]5CO)O[C@@H]4CO)O[C@@H]3CO [reference compound]					7.5	9.5	70 (≈ 82.4 mg/mL)	12	
OCCNC[C@H]1O[C@@H]2O[C@H]3[C@H](O)[C@@H](O)[C@@H](O[C@H]4[C@H](O)[C@@H](O)[C@@H](O[C@H]5[C@H](O)[C@@H](O)[C@@H](O[C@H]6[C@H](O)[C@@H](O)[C@@H](O[C@H]7[C@H](O)[C@@H](O)[C@@H](O[C@H]8[C@H](O)[C@@H](O)[C@@H](O[C@H]1[C@H](O)[C@H]2O)O[C@@H]8CO)O[C@@H]7CO)O[C@@H]6CO)O[C@@H]5CO)O[C@@H]4CO)O[C@@H]3CO [Example 1, mono-6-ethanolamino-6-deoxycyclomaltoheptaose]	7.1	40 (≈ 47.1 mg/mL)	95 (≈ 112 mg/mL)	18					no hemolysis was observed
